According to US20140221301A1, “COMBINATION TREATMENT FOR CANCER” (priority 2011, published 2014):

Legend:
primary human AML cells = type: in vivo, NOD-SCID mice
Experimental: FIG. 3. Tigecycline has anti-leukemia activity in vivo. (A, B) Human leukemia cells (OCI-AML2) were injected subcutaneously into the flank of SCID mice. Seven days after injection, once tumors were palpable, mice were treated with tigecycline (50 mg/kg or 100 mg/kg twice daily by i.p. injection) or vehicle control (n=10 per group). Fourteen days after injection of cells, mice were sacrificed, tumors excised and the volume and mass of the tumors were measured. The tumor mass and the mean volume+SD are shown. Differences in tumor volume and mass were analyzed by an unpaired t-test: *p<0.001. (C) Tumours from two control mice, and three tigecycline-treated mice were excised after 5 days of treatment and total proteins were extracted and analyzed by western blotting for Cox-1, Cox-2, Cox-4, and tubulin. […] Following treatment, human leukemia cell engraftment in the injected right femur was measured by FACS analysis for human CD45^+CD19^−CD33^+ cells. […] Six weeks later, human leukemia cell engraftment in the injected right femur was measured by FACS analysis for human CD45^+CD19^−CD33^+cells. […]
To assess tigecycline in mouse models of primary AML, primary human AML cells were isolated form a fresh peripheral blood sample from a patient with AML. A frozen aliquot was thawed, counted and resuspended in PBS. […]

Complexes I and IV = test: Respiratory chain enzyme activity relative to citrate synthase, Complexes I and IV; type: cell-based, human; settings: TEX cells, 2.5 μM and 5 μM, 72 hours
Experimental: FIG. 4. Tigecycline decreases mitochondrial Cox-1 protein levels in TEX cells. (A) Cells from TEX, OCI-AML2 and two primary AML patients were treated with increasing concentrations (2.5 μM and 5 μM) of tigecycline for 36 and 48 hours of tigecycline. Total proteins were extracted and analyzed by western blotting for Cox-1, Cox-2, Cox-4, grp78, XIAP, actin and tubulin. (B) TEX and AML patient cells were treated with increasing concentrations (2.5 μM and 5 μM) of tigecycline. Cox-1, Cox-2, and Cox-4 mRNA expression relative 18S was determined by quantitative RT-PCR. Data is shown as mean±SD. (C) TEX cells were treated with increasing concentrations of tigecycline and chloramphenicol (CAP) for 72 hours. Complex I, II and IV enzyme activity relative to citrate synthase activity was determined as described in materials and methods. […] Mitochondrial membrane potential (ΔΨ) was determined by staining cells with JC-1 dye, and flow cytometry analysis (Red/Green ratio). Reactive oxygen species generation (ROS) was determined by staining with h2-DCFDA and Dihydroethidium (DHE).
The effect of tigecycline treatment on enzyme activity of the respiratory chain complexes relative to the mitochondrial non-respiratory chain enzyme citrate synthase was examined. TEX leukemia cells were treated with tigecycline for […] and then respiratory chain enzyme relative to citrate synthase activity was analyzed. […]

[1] = test system: primary normal hematopoietic cells (PBSC); test: Cell viability by Annexin V staining, primary normal hematopoietic cells; type: cell-based, human; settings: n=5, 48 hours
Experimental: FIG. 2. Tigecycline induces cell death and inhibits clonogenic growth in primary AML cells preferential over normal hematopoietic cells. Mononuclear cells from peripheral blood of leukemia patients (blast count>80%) and normal G-CSF expanded donors was treated with increasing concentrations of tigecycline for 48 hours. Cell viability was measured by Annexin-PI flow cytometry staining. Cell viability is expressed as a mean percentage plus or minus SD (n=3) relative to DMSO-treated cells. Mononuclear cells from primary AML patient samples (A, B) and normal peripheral blood cells (C) were plated in methylcelluose with 5 μM of Tigecycline. (D) Colony forming units were counted at 7 days (AML) and 14 days (Normal) post plating. […]
Cell growth and viability was assessed by the MTS assay (Promega, Madison, Wis.) according to the manufacturer's instructions. Apoptosis and cell death was measured by Annexin V-fluroscein isothiocyanate (FITC; Biovision Research Products, Mountain View, Calif.), propidium iodide staining and flow cytometry according to the manufacturer's instructions and as previously described^30.
Given the cytotoxicity of tigecycline towards leukemia cell lines, the ability of tigecycline to induce cell death in primary acute myeloid leukemia (AML) patient samples and normal hematopoietic cells was compared and evaluated. […]

## CN(C)c1cc(NC(=O)CNC(C)(C)C)c(O)c2c1C[C@H]1C[C@H]3[C@H](N(C)C)C(O)=C(C(N)=O)C(=O)[C@@]3(O)C(O)=C1C2=O [tigecycline]
Primary human AML cells; 100 mg/kg i.p. daily for three weeks
  engraftment of human AML primary cells (CD45+CD33+CD19-): significantly decreased
Primary human AML cells; mouse, in vivo
  toxicity in treated mice: without gross organ toxicity or loss of body weight
Complexes I and IV
  enzyme activities of Complexes I and IV relative to citrate synthase: decreased
[1]
  LD50: > 10 µM
